Patent US20230129721A1, “STABILIZER FOR RADIOPHARMACEUTICALS AND RADIOPHARMACEUTICAL COMPOSITION COMPRISING THE SAME” (THE ASAN FOUNDATION, priority 2020, published 2023)

Assay: Stability (labeling / radiochemical purity by HPLC) of ^99mTc-labeled radiopharmaceutical-containing preparation under acidic, neutral and basic conditions
Format: physicochemical
Method: 2 mL of Tc-99m was added dropwise to a lyophilization vial containing 0.1 mg of GP-104, 15 μg of SnCl2, and 20 μg (165 nmol) of cysteine, and left at room temperature for 10 minutes, and the reaction was terminated by adjusting the pH of the mixture to pH 7 using a NaOH solution. The labeling purity was determined using HPLC (analysis conditions: Luna C18 250×4.6 mm, phosphate buffer:acetonitrile (100:0, 0-5 minutes; 80:20, 5-10 minutes; 80:20, 17 minutes; 100:0, 17.1 minutes; 100:0. 20 minutes), 1.0 mL/min, UV=280 nm).
HCl and NaOH were further added dropwise to the solution of Example 7 to adjust the final pH of the solution, followed by stability evaluation under the acidic (pH 5.5) and basic (pH 8.5) conditions. Then, the labeling purity was determined in the same manner as in Example 7 using HPLC.
(§1) 2 mL of Tc-99m was added dropwise to a lyophilization vial containing 0.1 mg of radiopharmaceutical GP-104, 15 μg of SnCl2, 10 μg (82.5 nmol) of cysteine, and 22 μg (82.5 nmol) of VB1, and left at room temperature for 10 minutes, and the reaction was terminated by adjusting the pH of the mixture to pH 7 using a NaOH solution. Then, the labeling purity was determined in the same manner as in Example 7 using HPLC.
HCl and NaOH were further added dropwise to the solution of Example 9 to adjust the final pH of the solution, followed by stability evaluation under the acidic (pH 5.5) and basic (pH 8.5) conditions. Then, the labeling purity was determined in the same manner as in Example 7 using HPLC.
as §1, with “of” for “of radiopharmaceutical”, “17” for “22”, “VB6,” for “VB1,”
HCl and NaOH were further added dropwise to the solution of Example 11 to adjust the final pH of the solution, followed by stability evaluation under the acidic (pH 5.5) and basic (pH 8.5) conditions. Then, the labeling purity was determined in the same manner as in Example 7 using HPLC.
as §1, with “of GP-105,” for “of radiopharmaceutical GP-104,”, “SnCl2, and 20” for “SnCl2, 10”, “μg (165” for “μg (82.5”, “cysteine,” for “cysteine, and 22 μg (82.5 nmol) of VB1,”
HCl and NaOH were further added dropwise to the solution of Example 13 to adjust the final pH of the solution, followed by stability evaluation under the acidic (pH 5.5) and basic (pH 8.5) conditions. Then, the labeling purity was determined in the same manner as in Example 7 using HPLC.
as §1, with “GP-105,” for “radiopharmaceutical GP-104,”
HCl and NaOH were further added dropwise to the solution of Example 15 to adjust the final pH of the solution, followed by stability evaluation under the acidic (pH 5.5) and basic (pH 8.5) conditions. Then, the labeling purity was determined in the same manner as in Example 7 using HPLC.
as §1, with “GP-105,” for “radiopharmaceutical GP-104,”, “17” for “22”, “VB6,” for “VB1,”, “HPLC. […]” for “HPLC.”

[1] = 10 μg (82.5 nmol) cysteine and 17 μg (82.5 nmol) VB6, pH 5.5, 0 hr
[2] = 10 μg (82.5 nmol) cysteine and 17 μg (82.5 nmol) VB6, pH 5.5, 2 hr
[3] = 10 μg (82.5 nmol) cysteine and 17 μg (82.5 nmol) VB6, pH 5.5, 4 hr
[4] = 10 μg (82.5 nmol) cysteine and 17 μg (82.5 nmol) VB6, pH 7, 0 hr
[5] = 10 μg (82.5 nmol) cysteine and 17 μg (82.5 nmol) VB6, pH 7, 2 hr
[6] = 10 μg (82.5 nmol) cysteine and 17 μg (82.5 nmol) VB6, pH 7, 4 hr
[7] = 10 μg (82.5 nmol) cysteine and 17 μg (82.5 nmol) VB6, pH 8.5, 0 hr
[8] = 10 μg (82.5 nmol) cysteine and 17 μg (82.5 nmol) VB6, pH 8.5, 2 hr
[9] = 10 μg (82.5 nmol) cysteine and 17 μg (82.5 nmol) VB6, pH 8.5, 4 hr
[10] = 10 μg (82.5 nmol) cysteine and 22 μg (82.5 nmol) VB1, pH 5.5, 0 hr
[11] = 10 μg (82.5 nmol) cysteine and 22 μg (82.5 nmol) VB1, pH 5.5, 2 hr
[12] = 10 μg (82.5 nmol) cysteine and 22 μg (82.5 nmol) VB1, pH 5.5, 4 hr
[13] = 10 μg (82.5 nmol) cysteine and 22 μg (82.5 nmol) VB1, pH 7, 0 hr
[14] = 10 μg (82.5 nmol) cysteine and 22 μg (82.5 nmol) VB1, pH 7, 2 hr
[15] = 10 μg (82.5 nmol) cysteine and 22 μg (82.5 nmol) VB1, pH 7, 4 hr
[16] = 10 μg (82.5 nmol) cysteine and 22 μg (82.5 nmol) VB1, pH 8.5, 0 hr
[17] = 10 μg (82.5 nmol) cysteine and 22 μg (82.5 nmol) VB1, pH 8.5, 2 hr
[18] = 10 μg (82.5 nmol) cysteine and 22 μg (82.5 nmol) VB1, pH 8.5, 4 hr
[19] = 20 μg (165 nmol) cysteine, pH 5.5, 0 hr
[20] = 20 μg (165 nmol) cysteine, pH 5.5, 2 hr
[21] = 20 μg (165 nmol) cysteine, pH 5.5, 4 hr
[22] = 20 μg (165 nmol) cysteine, pH 7, 0 hr
[23] = 20 μg (165 nmol) cysteine, pH 7, 2 hr
[24] = 20 μg (165 nmol) cysteine, pH 7, 4 hr
[25] = 20 μg (165 nmol) cysteine, pH 8.5, 0 hr
[26] = 20 μg (165 nmol) cysteine, pH 8.5, 2 hr
[27] = 20 μg (165 nmol) cysteine, pH 8.5, 4 hr

radiochemical purity (labeling purity) [1] [%]	radiochemical purity (labeling purity) [2] [%]	radiochemical purity (labeling purity) [3] [%]	radiochemical purity (labeling purity) [4] [%]	radiochemical purity (labeling purity) [5] [%]	radiochemical purity (labeling purity) [6] [%]	radiochemical purity (labeling purity) [7] [%]	radiochemical purity (labeling purity) [8] [%]	radiochemical purity (labeling purity) [9] [%]	radiochemical purity (labeling purity) [10] [%]	radiochemical purity (labeling purity) [11] [%]	radiochemical purity (labeling purity) [12] [%]	radiochemical purity (labeling purity) [13] [%]	radiochemical purity (labeling purity) [14] [%]	radiochemical purity (labeling purity) [15] [%]	radiochemical purity (labeling purity) [16] [%]	radiochemical purity (labeling purity) [17] [%]	radiochemical purity (labeling purity) [18] [%]	radiochemical purity (labeling purity) [19] [%]	radiochemical purity (labeling purity) [20] [%]	Structure (SMILES)	other results
100	97.24	95.61	100	98.56	98.2	100	92.21	89.62	100	100	98.63	100	100	94.88	100	94.13	90.17	100	85.49	O=C(O)C[C@H](NC(=O)[C@@H]1CCCN(C(=O)CCC2CCNCC2)C1)c1cncc(OCCNC(=O)CN(CC(=O)O)CC(=O)O)c1 (99mTc complex, metal not drawn) [GP-105, 2,2′-((2-((2-((5-((S)-2-carboxy-1-((R)-1-(3-(piperidin-4-yl)propanoyl)piperidine-3-carboxamido)ethyl)pyridin-3-yl)oxy)ethyl)amino)-2-oxoethyl)azanediyl)diacetic acid]	radiochemical purity (labeling purity) [21]: 82.11%; radiochemical purity (labeling purity) [22]: 100%; radiochemical purity (labeling purity) [23]: 94.88%; radiochemical purity (labeling purity) [24]: 85.55%; radiochemical purity (labeling purity) [25]: 100%; radiochemical purity (labeling purity) [26]: 50.64%; radiochemical purity (labeling purity) [27]: 23.98%
97.24	90.29	90.65	97.24	95.61	96.25	97.24	95.61	91.19	100	92.72	91.20	100	98.63	98.18	100	83.08	80.97	95.26	91.45	O=C(O)C[C@H](NC(=O)[C@@H]1CCCN(C(=O)CCC2CCNCC2)C1)c1cncc(OCCNC(=O)CN(CCN(CCN(CC(=O)O)CC(=O)O)CC(=O)O)CC(=O)O)c1 [GP-104, (S)-3-(5-(2-(2-DTPA acetamido)ethoxy)pyridin-3-yl)-3-((R)-1-(3-(piperidin-4-yl)propanoyl)piperidine-3-carboxamido)propanoic acid]	radiochemical purity (labeling purity) [21]: 89.28%; radiochemical purity (labeling purity) [22]: 95.26%; radiochemical purity (labeling purity) [23]: 91.19%; radiochemical purity (labeling purity) [24]: 91.61%; radiochemical purity (labeling purity) [25]: 95.26%; radiochemical purity (labeling purity) [26]: 79.83%; radiochemical purity (labeling purity) [27]: 51.77%
